# Laboratory results from PMC7932537, “Quantitative profiling of protease specificity” (PLoS Computational Biology, 2021).
# Columns and labels:
# MMP-9 = MMP-9 (Homo sapiens, UniProt P14780); assay: K(obs) of individual phage substrates (set of 1369); format: biochemical; details: MMP9
# MMP-2 [1] = assay: Substrate phage display with NGS: relative probability (RP) of P3-P1' tetramer clusters; format: biochemical, human; details: MMP2;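 further: ratio of tetramer probability after protease selection to that in naive phage library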
# MMP-2 [2] = molecular target: T1, MMP-2 (Homo sapiens, UniProt P08253); assay: K(obs) of individual phage substrates (set of 1369); format: biochemical; details: MMP2
# T1 sequence (P08253 110-660): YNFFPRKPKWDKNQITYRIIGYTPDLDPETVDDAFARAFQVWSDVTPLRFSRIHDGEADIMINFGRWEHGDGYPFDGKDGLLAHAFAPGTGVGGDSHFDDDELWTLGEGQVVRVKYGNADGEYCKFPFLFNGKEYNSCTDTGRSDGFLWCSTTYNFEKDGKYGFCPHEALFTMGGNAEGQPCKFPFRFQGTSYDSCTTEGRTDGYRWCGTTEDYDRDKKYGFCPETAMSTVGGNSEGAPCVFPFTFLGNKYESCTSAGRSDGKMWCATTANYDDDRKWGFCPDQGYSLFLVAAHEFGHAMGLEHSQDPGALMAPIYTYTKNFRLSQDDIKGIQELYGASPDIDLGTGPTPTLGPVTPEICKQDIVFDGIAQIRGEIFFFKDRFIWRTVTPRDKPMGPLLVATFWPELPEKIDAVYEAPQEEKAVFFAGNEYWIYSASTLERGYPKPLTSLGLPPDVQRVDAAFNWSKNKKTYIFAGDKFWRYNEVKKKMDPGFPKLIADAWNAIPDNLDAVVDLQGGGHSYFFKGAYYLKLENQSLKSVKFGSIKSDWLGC
# [3] = individual phage substrates, set of 1369 peptides, hyphen in sequence marks cleavage position
# [4] = RP of the P3-P1' tetramer contained in the substrate (substrate phage display with NGS)
# [5] = individual phage substrates, set of 1369 peptides, cleavage position marked by hyphen in sequence
# [6] = individual phage substrate of the set of 1369 peptides, dash in the sequence marks the cleavage position
# [7] = RP of the P3-P1' tetramer contained in the substrate
# [8] = individual phage substrate of the set of 1369 peptides, cleavage position marked by '-'
# Sequence of MMP-9 (P14780 94-707): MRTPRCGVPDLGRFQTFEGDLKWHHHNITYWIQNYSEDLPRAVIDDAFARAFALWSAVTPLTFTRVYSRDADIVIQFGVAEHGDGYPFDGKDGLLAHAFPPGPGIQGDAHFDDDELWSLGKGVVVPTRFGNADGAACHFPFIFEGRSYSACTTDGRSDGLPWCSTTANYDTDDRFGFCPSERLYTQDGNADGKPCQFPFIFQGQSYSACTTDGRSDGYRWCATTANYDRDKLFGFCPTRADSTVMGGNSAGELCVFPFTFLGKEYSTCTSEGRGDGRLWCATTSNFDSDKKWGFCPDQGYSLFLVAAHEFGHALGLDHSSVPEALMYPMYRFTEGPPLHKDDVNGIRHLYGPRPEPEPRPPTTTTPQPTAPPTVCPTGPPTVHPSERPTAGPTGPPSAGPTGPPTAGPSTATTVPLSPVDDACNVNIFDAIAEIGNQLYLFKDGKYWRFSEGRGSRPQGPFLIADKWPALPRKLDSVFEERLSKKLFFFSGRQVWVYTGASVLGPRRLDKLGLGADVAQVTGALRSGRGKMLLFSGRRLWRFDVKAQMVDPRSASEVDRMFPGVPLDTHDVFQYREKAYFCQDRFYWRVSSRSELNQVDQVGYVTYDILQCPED
Substance,Kobs (MMP-9; [3]),relative probability (RP) (MMP-2 [1]; [4]),Kobs (MMP-2 [2]; [5]),Kobs (MMP-9; [6]),relative probability (RP) (MMP-2 [1]; [7]),Kobs (MMP-2 [2]; [8])
SGPRP-LYHTA,12792.1 M⁻¹ s⁻¹,34.3303,12792.1 M⁻¹ s⁻¹,–,–,–
SGPRS-LYTTA,–,–,–,12792.1 M⁻¹ s⁻¹,33.3704,12792.1 M⁻¹ s⁻¹
SGPRS-MLNTA,–,–,–,5461.43 M⁻¹ s⁻¹,32.6673,6688.74 M⁻¹ s⁻¹
SGPRW-MKGTA,7815.03 M⁻¹ s⁻¹,32.3694,4205.91 M⁻¹ s⁻¹,–,–,–
SGPSG-MRVTA,6688.74 M⁻¹ s⁻¹,32.7604,7386.83 M⁻¹ s⁻¹,–,–,–
SGPSM-LTATA,7386.83 M⁻¹ s⁻¹,33.0235,9740.44 M⁻¹ s⁻¹,–,–,–
SGPSS-LFATA,–,–,–,12792.1 M⁻¹ s⁻¹,35.4913,12792.1 M⁻¹ s⁻¹
SGPSW-LYTTA,10866.7 M⁻¹ s⁻¹,35.705,9740.44 M⁻¹ s⁻¹,–,–,–
SGPTA-LRATA,–,–,–,12792.1 M⁻¹ s⁻¹,32.8941,10866.7 M⁻¹ s⁻¹
SGPTN-LRTTA,–,–,–,12792.1 M⁻¹ s⁻¹,31.0288,12792.1 M⁻¹ s⁻¹
SGPVA-LYKTA,12792.1 M⁻¹ s⁻¹,34.2983,12792.1 M⁻¹ s⁻¹,–,–,–
SGPVH-LLNTA,–,–,–,2280.5 M⁻¹ s⁻¹,32.2352,3344.37 M⁻¹ s⁻¹
SGPVM-LRGTA,12792.1 M⁻¹ s⁻¹,25.0294,12792.1 M⁻¹ s⁻¹,–,–,–
SGPVN-LISTA,–,–,–,12792.1 M⁻¹ s⁻¹,34.508,6131.32 M⁻¹ s⁻¹
SGPYP-LWKTA,–,–,–,3079.62 M⁻¹ s⁻¹,30.8058,2218.08 M⁻¹ s⁻¹
SGPYT-LVMTA,8321.48 M⁻¹ s⁻¹,16.827,517.582 M⁻¹ s⁻¹,–,–,–
SGQRG-IYATA,–,–,–,3344.37 M⁻¹ s⁻¹,7.484,2157.02 M⁻¹ s⁻¹
SGRRN-LMNTA,484.315 M⁻¹ s⁻¹,6.1579,912.511 M⁻¹ s⁻¹,–,–,–
SGSHG-LRSTA,–,–,–,1154.21 M⁻¹ s⁻¹,0.2009,1763.55 M⁻¹ s⁻¹
SGSLA-LQSTA,619.843 M⁻¹ s⁻¹,6.019,27.918 M⁻¹ s⁻¹,–,–,–
SGSMR-LVLTA,0 M⁻¹ s⁻¹,0,0 M⁻¹ s⁻¹,–,–,–
SGSRA-LTASG,–,–,–,951.362 M⁻¹ s⁻¹,12.4506,2097.28 M⁻¹ s⁻¹
SGTLN-LYNTA,–,–,–,0 M⁻¹ s⁻¹,2.764,0 M⁻¹ s⁻¹

Substance,Kobs (MMP-9; [3]),relative probability (RP) (MMP-2 [1]; [4]),Kobs (MMP-2 [2]; [5]),Kobs (MMP-9; [6]),relative probability (RP) (MMP-2 [1]; [7]),Kobs (MMP-2 [2]; [8])
SGVFW-MRGTA,5461.43 M⁻¹ s⁻¹,10.3215,3438.54 M⁻¹ s⁻¹,–,–,–
SGVLG-LIGTA,12792.1 M⁻¹ s⁻¹,24.4128,12792.1 M⁻¹ s⁻¹,–,–,–
SGVMG-IRITA,–,–,–,1418.96 M⁻¹ s⁻¹,12.4242,484.315 M⁻¹ s⁻¹
SGVNH-LMTTA,–,–,–,231.616 M⁻¹ s⁻¹,12.8499,201.585 M⁻¹ s⁻¹
SGVRA-IIATA,–,–,–,12792.1 M⁻¹ s⁻¹,26.2338,12792.1 M⁻¹ s⁻¹
SGVRF-LKGTA,12792.1 M⁻¹ s⁻¹,15.0438,5269.78 M⁻¹ s⁻¹,–,–,–
SGVRF-LMNTA,–,–,–,9740.44 M⁻¹ s⁻¹,15.0438,1418.96 M⁻¹ s⁻¹
SGVRH-LINTA,–,–,–,8321.48 M⁻¹ s⁻¹,25.4239,1763.55 M⁻¹ s⁻¹
SGVRH-VRATA,–,–,–,12792.1 M⁻¹ s⁻¹,9.5401,3850.82 M⁻¹ s⁻¹
SGVRW-YSNTA,–,–,–,5667.28 M⁻¹ s⁻¹,17.3102,874.197 M⁻¹ s⁻¹
SGVRY-LYGTA,8941.32 M⁻¹ s⁻¹,18.3724,3637.04 M⁻¹ s⁻¹,–,–,–
SGVSF-LQQTA,–,–,–,0 M⁻¹ s⁻¹,5.918,1373.05 M⁻¹ s⁻¹
SGVWG-IYVTA,2761.81 M⁻¹ s⁻¹,3.01,484.315 M⁻¹ s⁻¹,–,–,–
SGVWN-LIMTA,–,–,–,6688.74 M⁻¹ s⁻¹,14.4124,619.843 M⁻¹ s⁻¹
SGVYS-LIKTA,836.403 M⁻¹ s⁻¹,16.838,27.918 M⁻¹ s⁻¹,–,–,–
SGVYW-LRSTA,–,–,–,12792.1 M⁻¹ s⁻¹,16.4375,9740.44 M⁻¹ s⁻¹
SGWAP-LLRTA,142.481 M⁻¹ s⁻¹,23.9342,142.481 M⁻¹ s⁻¹,–,–,–
SGWSG-MMATA,171.876 M⁻¹ s⁻¹,18.3143,1112.44 M⁻¹ s⁻¹,–,–,–
SGWSN-LMRTA,0 M⁻¹ s⁻¹,17.9326,0 M⁻¹ s⁻¹,–,–,–
SGYAN-MRRTA,762.325 M⁻¹ s⁻¹,22.6837,2097.28 M⁻¹ s⁻¹,–,–,–
SGYAS-MVATA,0 M⁻¹ s⁻¹,24.1553,5667.28 M⁻¹ s⁻¹,–,–,–
SGYMS-LIATA,0 M⁻¹ s⁻¹,0.07249,386.839 M⁻¹ s⁻¹,–,–,–
SGYRS-LTLTA,27.918 M⁻¹ s⁻¹,1.506,292.668 M⁻¹ s⁻¹,–,–,–

Substance,Kobs (MMP-9; [3]),relative probability (RP) (MMP-2 [1]; [4]),Kobs (MMP-2 [2]; [5]),Kobs (MMP-9; [6]),relative probability (RP) (MMP-2 [1]; [7]),Kobs (MMP-2 [2]; [8])
SGYRS-LYSTA,2476.66 M⁻¹ s⁻¹,1.506,2280.5 M⁻¹ s⁻¹,–,–,–
SGYYG-LRATA,12792.1 M⁻¹ s⁻¹,0.142,874.197 M⁻¹ s⁻¹,–,–,–
SIAFA-LTASG,12792.1 M⁻¹ s⁻¹,17.8812,12792.1 M⁻¹ s⁻¹,–,–,–
SIHLA-LTASG,171.876 M⁻¹ s⁻¹,11.3603,1561.44 M⁻¹ s⁻¹,–,–,–
SIVRM-LTASG,4335.13 M⁻¹ s⁻¹,15.9125,7386.83 M⁻¹ s⁻¹,–,–,–
SKMAH-LTASG,–,–,–,0 M⁻¹ s⁻¹,29.5006,2409.72 M⁻¹ s⁻¹
SKPNF-LTASG,–,–,–,3741.87 M⁻¹ s⁻¹,15.743,5889.62 M⁻¹ s⁻¹
SLFLH-MTASG,0 M⁻¹ s⁻¹,0.2069,142.481 M⁻¹ s⁻¹,–,–,–
SLNRA-LTASG,–,–,–,4470.66 M⁻¹ s⁻¹,16.7485,12792.1 M⁻¹ s⁻¹
SLPRP-LTASG,10866.7 M⁻¹ s⁻¹,34.3303,6396.07 M⁻¹ s⁻¹,–,–,–
SLPTS-LTASG,2097.28 M⁻¹ s⁻¹,28.926,8321.48 M⁻¹ s⁻¹,–,–,–
SLVLN-MTASG,4613.14 M⁻¹ s⁻¹,19.025,3438.54 M⁻¹ s⁻¹,–,–,–
SLVRF-LTASG,–,–,–,12792.1 M⁻¹ s⁻¹,15.0438,12792.1 M⁻¹ s⁻¹
SMGSH-LTASG,0 M⁻¹ s⁻¹,4.2785,1154.21 M⁻¹ s⁻¹,–,–,–
SNLNS-TASGA,–,–,–,4470.66 M⁻¹ s⁻¹,0.4784,4205.91 M⁻¹ s⁻¹
SPPLA-LTASG,10866.7 M⁻¹ s⁻¹,34.4921,10866.7 M⁻¹ s⁻¹,–,–,–
SQPHL-LTASG,2097.28 M⁻¹ s⁻¹,16.4802,1816.46 M⁻¹ s⁻¹,–,–,–
SQPIH-MTASG,–,–,–,6688.74 M⁻¹ s⁻¹,18.8886,2097.28 M⁻¹ s⁻¹
SQPTG-LTASG,12792.1 M⁻¹ s⁻¹,33.1098,12792.1 M⁻¹ s⁻¹,–,–,–
SQVRF-LTASG,–,–,–,6688.74 M⁻¹ s⁻¹,15.0438,8321.48 M⁻¹ s⁻¹
SRAYS-LTASG,–,–,–,8941.32 M⁻¹ s⁻¹,18.7071,7815.03 M⁻¹ s⁻¹
SRYLP-MTASG,0 M⁻¹ s⁻¹,0.4306,0 M⁻¹ s⁻¹,–,–,–
SSVWH-ITASG,–,–,–,836.403 M⁻¹ s⁻¹,1.931,323.705 M⁻¹ s⁻¹
